For one experiment, the system named is phosphorylated ERK. As to the kind of experiment: KRAS G12D-mediated phosphorylated ERK inhibition assay (AlphaLISA), A427. The note with it: Homo sapiens, A-427; A427 cells; class symbols; read-out: pERK (A427) IC50. The format is cell-based. Summed up: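 A427 cell samples read with AlphaLISA SureFire Ultra kits for p-ERK 1/2 (Thr202/Tyr204) and total ERK. p-ERK signal normalized to total ERK, percent inhibition calculated against DMSO control, and IC50 obtained by non-linear fit of log concentration versus inhibition.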
On the technique in general: Alpha assays give light when donor and acceptor beads are brought close together.

The next experiment concerns the target T1, KRAS-G12D (Homo sapiens, UniProt P01116, G12D).
T1 construct: endogenous in cells; host or cells: A-427 (ATCC), AGS, AsPc-1, Panc 04.03
Briefly: KRAS-G12D degradation assay (Western Blot), A-427 cells. It is filed as cell-based. The note with it: A427 cells, 24 h, class symbols; for Dmax: A-427. The method, boiled down: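 Western blotting of lysates (5 μg protein) quantified KRAS against a β-actin reference after 24 h exposure to compound at final 0.03–3000 nM in 0.25% DMSO. Cells were A-427, AGS, AsPc-1 or Panc 04.03, all KRAS G12D, at 5×10^5/well. Degradation versus control yielded DC50 and Dmax.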
In general terms: Immunoblotting shows a protein as a band on a membrane.

Among the data in patent US20260166159A1, “KRAS G12D DEGRADATION AGENT, AND PREPARATION METHOD AND USE THEREFOR” (LEADINGTAC PHARMACEUTICAL (SHAOXING) CO., LTD., priority 2022, published 2026) are IC50, DC50 and Dmax values, retold here.

The structures appear in SMILES notation.

T1 sequence (P01116 1-188 isoform P01116-2 G12D): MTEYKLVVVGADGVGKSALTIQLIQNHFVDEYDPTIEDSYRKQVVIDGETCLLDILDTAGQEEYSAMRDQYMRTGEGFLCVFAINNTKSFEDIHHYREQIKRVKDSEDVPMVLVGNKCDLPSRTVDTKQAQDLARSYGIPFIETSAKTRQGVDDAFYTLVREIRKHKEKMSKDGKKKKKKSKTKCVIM

In general, IC50 refers to the concentration at which inhibition is half-maximal. As a reminder, the DC50 is the concentration giving 50% degradation. A low value points to a more potent degrader. For orientation: Dmax means the greatest extent of degradation seen. A low value points to shallow degradation. For the molecule `C#Cc1c(F)ccc2cc(O)cc(-c3ncc4c(N5CC6CCC(C5)N6)nc(OCC(C)(C)CN5CCN(CCCC6CCN(C(=O)c7ccc(Cl)c(N8CCC(=O)NC8=O)c7)CC6)CC5)nc4c3F)c12` [Example 23, 1-(5-(4-(3-(4-(3-((4-(3,8-diazabicyclo[3.2.1]octan-3-yl)-7-(8-ethynyl-7-fluoro-3-hydroxynaphthalen-1-yl)-8-fluoropyrido[4,3-d]pyrimidin-2-yl)oxy)-2,2-dimethylpropyl)piperazin-1-yl)propyl)piperidine-1-carbonyl)-2-chlorophenyl)dihydropyrimidine-2,4(1H,3H)-dione], in the experiment on phosphorylated ERK, the IC50 is 100 to 500 nM. Further, on KRAS-G12D, the DC50 fell in the range of 1000 to 10000 nM and the Dmax lay within 30 to 50%.
The matching figures for `C#Cc1c(F)ccc2cc(O)cc(-c3ncc4c(N5CC6CCC(C5)N6)nc(OCC56CC(CN7CCN(CC8CCC9(CC8)CCN(C(=O)c8ccc(Cl)c(N%10CCC(=O)NC%10=O)c8)CC9)CC7)(C5)C6)nc4c3F)c12` [Example 33, 1-(5-(9-((4-((3-(((4-(3,8-diazabicyclo[3.2.1]octan-3-yl)-7-(8-ethynyl-7-fluoro-3-hydroxynaphthalen-1-yl)-8-fluoropyrido[4,3-d]pyrimidin-2-yl)oxy)methyl)bicyclo[1.1.1]pentan-1-yl)methyl)piperazin-1-yl)methyl)-3-azaspiro[5.5]undecane-3-carbonyl)-2-chlorophenyl)dihydropyrimidine-2,4(1H,3H)-dione]: at most 50 nM, at most 50 nM and 80 to 100%.
Consider `C#Cc1c(F)ccc2cc(O)cc(-c3ncc4c(N5CC6CCC(C5)N6)nc(OCC5(CN6CCN(CC7CCC8(CC7)CCN(C(=O)c7ccc(Br)c(N9CCC(=O)NC9=O)c7)CC8)CC6)CC5)nc4c3F)c12` [Example 29, 1-(5-(9-((4-((1-(((4-(3,8-diazabicyclo[3.2.1]octan-3-yl)-7-(8-ethynyl-7-fluoro-3-hydroxynaphthalen-1-yl)-8-fluoropyrido[4,3-d]pyrimidin-2-yl)oxy)methyl)cyclopropyl)methyl)piperazin-1-yl)methyl)-3-azaspiro[5.5]undecane-3-carbonyl)-2-bromophenyl)dihydropyrimidine-2,4(1H,3H)-dione], for which the IC50 in the experiment on phosphorylated ERK is at most 50 nM. In addition, on KRAS-G12D, the 50% degradation concentration (DC50) is at most 50 nM and the Dmax lay in the range of 80 to 100%.
For `C#Cc1c(F)ccc2cc(O)cc(-c3ncc4c(N5CC6CCC(C5)N6)nc(OCC5(CN6CCN(CCCC7CCN(C(=O)c8ccc(Cl)c(N9CCC(=O)NC9=O)c8)CC7)CC6)CC5)nc4c3F)c12` [Example 4, 1-(5-(4-(3-(4-((1-(((4-(3,8-diazabicyclo[3.2.1]octan-3-yl)-7-(8-ethynyl-7-fluoro-3-hydroxynaphthalen-1-yl)-8-fluoropyrido[4,3-d]pyrimidin-2-yl)oxy)methyl)cyclopropyl)methyl)piperazin-1-yl)propyl)piperidine-1-carbonyl)-2-chlorophenyl)dihydropyrimidine-2,4(1H,3H)-dione], the IC50 in the experiment on phosphorylated ERK is at most 50 nM. On KRAS-G12D, the DC50 was at most 50 nM and the Dmax was 80 to 100%.
For the molecule `Cc1ccc2[nH]ncc2c1-c1ncc2c(N3CC4CCC(C3)N4)nc(OCC3(CN4CCN(CC5CCC6(CC5)CCN(C(=O)c5ccc(Cl)c(N7CCC(=O)NC7=O)c5)CC6)CC4)CC3)nc2c1F` [Example 16, 1-(5-(9-((4-((1-(((4-(3,8-diazabicyclo[3.2.1]octan-3-yl)-8-fluoro-7-(5-methyl-1H-indazol-4-yl)pyrido[4,3-d]pyrimidin-2-yl)oxy)methyl)cyclopropyl)methyl)piperazin-1-yl)methyl)-3-azaspiro[5.5]undecane-3-carbonyl)-2-chlorophenyl)dihydropyrimidine-2,4(1H,3H)-dione], the IC50 in the experiment on phosphorylated ERK was in the range of 1000 to 10000 nM. On KRAS-G12D, this molecule displayed a DC50 of 1000 to 10000 nM and a Dmax of 30 to 50%.
